Experimental data as given in ChEMBL document CHEMBL3616413, “Isolation and structure of vanitaracin A, a novel anti-hepatitis B virus compound from Talaromyces sp” (Bioorg Med Chem Lett, 2015).

How the values were obtained:
[1] = Cytotoxicity against human HepG2 cells expressing hNTCP-C4 assessed as cell viability by MTT assay; assay type: cell-based; design: concentration or dose not given beside the values; conditions: read-out: Activity
Hepatitis B virus = test: Antiviral activity against HBV infected in human HepG2 cells expressing hNTCP-C4 assessed as viral envelope surface protein secretion treated for 16 hrs followed by compound washout measured after 12 days by ELISA; assay type: functional, organism-based

Structure (SMILES)	IC50 (Hepatitis B virus) [µM]	viability [1] [%]
CCC(C)CC(C)C(=O)OC1(C)C(=O)Cc2cc(O)c3c(c2C1=O)C[C@@H](O)C[C@H]3C (stereo not given in full)	91.2	> 90
CCC(C)CC(C)C(=O)OC1(C)C(=O)c2c(cc(O)c3c2C[C@@H](O)C[C@H]3C)C(C)(O)C1=O (stereo not given in full)	10.5	> 90

Continued by falling IC50 (Hepatitis B virus), values first:

IC50 (Hepatitis B virus) [µM]	Structure (SMILES)	viability [1] [%]
72.4	CCC(=O)Cc1cc(=O)c2c(C)cc(O)cc2o1	> 90
52.1	CCC(=O)CC1(O)CC(=O)c2c(C)cc(O)cc2O1 (stereo not given)	> 90
51.4	Cc1cccc(O)c1C(=O)Cc1c(C=O)cc(O)c(C)c1O	> 90
